The target in assay [1] is Dihydroorotate dehydrogenase (quinone), mitochondrial (Homo sapiens, UniProt Q02127). Nature of the assay: Inhibition of N-terminal His10-tagged human DHODH (Met30 to Arg396) expressed in Escherichia coli BL21 (DE3) using dihydroorotate as substrate measured every 30 secs for 6 mins by DCIP dye-based assay.
Assay [2] has as its target T1, Dihydroorotate dehydrogenase (Plasmodium falciparum, UniProt Q54A96).
T1 sequence (Q54A96 whole entry): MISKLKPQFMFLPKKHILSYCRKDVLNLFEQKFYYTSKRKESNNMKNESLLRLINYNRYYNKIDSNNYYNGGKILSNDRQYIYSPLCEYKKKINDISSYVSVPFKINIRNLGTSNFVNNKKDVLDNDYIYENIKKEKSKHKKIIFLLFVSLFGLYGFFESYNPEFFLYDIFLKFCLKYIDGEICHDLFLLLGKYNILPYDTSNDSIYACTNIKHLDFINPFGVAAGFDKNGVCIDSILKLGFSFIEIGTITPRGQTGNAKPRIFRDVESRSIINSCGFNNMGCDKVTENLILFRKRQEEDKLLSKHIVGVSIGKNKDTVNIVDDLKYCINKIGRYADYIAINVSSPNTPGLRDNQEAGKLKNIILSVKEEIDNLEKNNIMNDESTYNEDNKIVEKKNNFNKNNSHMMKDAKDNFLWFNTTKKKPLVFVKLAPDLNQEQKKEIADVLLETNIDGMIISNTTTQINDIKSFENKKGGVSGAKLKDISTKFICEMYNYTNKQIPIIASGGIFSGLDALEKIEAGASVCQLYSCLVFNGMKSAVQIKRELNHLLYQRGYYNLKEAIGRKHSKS
Nature of the assay: Inhibition of Plasmodium falciparum DHODH (Phe158 to Ser569) expressed in Escherichia coli BL21 using dihydroorotate as substrate measured every 30 secs for 6 mins by DCIP dye-based assay.

In assay [3] the test system is Plasmodium falciparum. Nature of the assay: microbe, parasite or virus in culture. The note with it: Dd2, 72 h.
Description: Antiplasmodial activity against chloroquine-resistant Plasmodium falciparum Dd2 infected in erythrocytes assessed as parasite growth inhibition after 72 hrs by SYBR green 1 dye-based fluorometric analysis
Assay [4] has as its system Plasmodium falciparum. Nature of the assay: microbe, parasite or virus in culture. The note with it: 3D7, 72 h.
Description: Antiplasmodial activity against chloroquine-sensitive Plasmodium falciparum 3D7 infected in erythrocytes assessed as parasite growth inhibition after 72 hrs by SYBR green 1 dye-based fluorometric analysis

This note sets out measurements from ChEMBL document CHEMBL2429811, “Novel selective and potent inhibitors of malaria parasite dihydroorotate dehydrogenase: discovery and optimization of dihydrothiophenone derivatives” (J Med Chem, 2013).

The structures appear in SMILES notation.

Sequence of Dihydroorotate dehydrogenase (quinone), mitochondrial (Q02127 whole entry): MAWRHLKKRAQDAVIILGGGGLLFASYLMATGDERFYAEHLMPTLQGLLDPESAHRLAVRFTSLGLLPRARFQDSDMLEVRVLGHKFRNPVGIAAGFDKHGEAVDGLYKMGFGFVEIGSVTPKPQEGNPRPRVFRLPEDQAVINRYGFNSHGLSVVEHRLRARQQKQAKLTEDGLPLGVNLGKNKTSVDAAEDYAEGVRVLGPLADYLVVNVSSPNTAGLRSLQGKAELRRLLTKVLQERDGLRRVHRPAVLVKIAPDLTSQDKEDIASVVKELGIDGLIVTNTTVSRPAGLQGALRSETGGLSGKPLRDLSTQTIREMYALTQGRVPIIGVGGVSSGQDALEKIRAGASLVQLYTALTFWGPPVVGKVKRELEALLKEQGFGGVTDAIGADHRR

The IC50 is the concentration at which inhibition is half-maximal. With `Cc1ccc(NC2=C(C(N)=O)C(=O)CS2)cc1C`, the IC50 in assay [1] is > 50 µM; in assay [2] it was > 50 µM; in assay [3], > 20 µM; in assay [4], > 20 µM.
For `CCOC(=O)C1=C(Nc2ccc3c(c2)CCC3)SCC1=O`, the IC50 in assay [1] is > 50 µM; in assay [2], 0.851 µM; in assay [3], 1.57 µM; in assay [4], 1.4 µM.
As to `CCCCOC(=O)C1=C(Nc2ccc3ccccc3c2)SCC1=O`, the IC50 in assay [1] was > 50 µM; in assay [2] it was 35.6 µM; in assay [3], 5.23 µM; in assay [4], 8.38 µM.
On to `O=C(O)C1=C(Nc2ccc3ccccc3c2)SCC1=O`, for which the IC50 was > 50 µM in assay [1], 1.24 µM in assay [2], 1.05 µM in assay [3] and 1.86 µM in assay [4].
In the same order, the values of `CCOC(=O)C1=C(Nc2ccc(Br)cc2C)SCC1=O` are > 50 µM, > 50 µM, > 20 µM and > 20 µM.
The like results for `Cc1ccc(NC2=C(C(=O)O)C(=O)CS2)cc1C` were, in that order, > 50 µM, > 50 µM, > 20 µM and > 20 µM.
The like results for `Cc1ccc(NC2=C(C(=O)OCC3CC3)C(=O)CS2)cc1C` were, in that order, > 50 µM, 4.16 µM, 2.63 µM and 3.53 µM.
With `CCOC(=O)C1=C(Nc2ccc3c(c2)c2ccccc2n3CC)SCC1=O`, the IC50 is > 50 µM in assay [1], 0.392 µM in assay [2], 1.51 µM in assay [3] and 1.23 µM in assay [4].
The like results for `Cc1ccc(NC2=C(C(=O)NCC3CC3)C(=O)CS2)cc1C` were, in that order, 1.84 µM, 3.66 µM, 3.5 µM and 3.34 µM.
In the same order, the values of `CCCNC(=O)C1=C(Nc2ccc(C)c(C)c2)SCC1=O` are 6.3 µM, 4.63 µM, 3.93 µM and 3.17 µM.
In the same order, the values of `CCOC(=O)C1=C(Nc2ccc(C)c(C)c2)SCC1=O` are > 50 µM, 0.256 µM, 1.32 µM and 1.99 µM.
As to `COC(=O)C1=C(Nc2ccc(C)c(C)c2)SCC1=O`, the half-maximal inhibitory concentration (IC50) was > 50 µM in assay [1], 1.49 µM in assay [2], 1.27 µM in assay [3] and 1.02 µM in assay [4].
The like results for `CCOC(=O)C1=C(Nc2ccc3cc4ccccc4cc3c2)SCC1=O` were, in that order, > 50 µM, 0.197 µM, 1.13 µM and 0.688 µM.
In the same order, the values of `CCOC(=O)C1=C(Nc2cnc3ccccc3c2)OCC1=O` are > 50 µM, 0.079 µM, 0.517 µM and 0.492 µM.
The like results for `CCOC(=O)C1=C(Nc2ccc(Cl)c(C(F)(F)F)c2)SCC1=O` were, in that order, > 50 µM, 0.751 µM, 3.15 µM and 2.19 µM.
Regarding `CCOC(=O)C1=C(Nc2ccc(S(F)(F)(F)(F)F)cc2)OCC1=O`, the half-inhibitory concentration (IC50) was > 50 µM in assay [1], 0.168 µM in assay [2], 1.06 µM in assay [3] and 0.68 µM in assay [4].
In the same order, the values of `CCOC(=O)C1=C(Nc2ccc3c(c2)CCC3)OCC1=O` are > 50 µM, 0.065 µM, 0.373 µM and 0.495 µM.
In the same order, the values of `Cc1ccc(NC2=C(C(=O)NC3CC3)C(=O)CS2)cc1C` are 4.11 µM, 19.1 µM, 5.53 µM and 6.62 µM.
The like results for `CCOC(=O)C1=C(Nc2ccc3c(c2)CCCC3)SCC1=O` were, in that order, 12 µM, 0.092 µM, 0.315 µM and 0.169 µM.
As to `CCOC(=O)C1=C(Nc2ccc(Br)c(C(F)(F)F)c2)SCC1=O`, the half-maximal inhibitory concentration (IC50) in assay [1] was > 50 µM; in assay [2], 1.61 µM; in assay [3], 5.54 µM; in assay [4], 5.61 µM.
In the same order, the values of `COC(=O)C1=C(Nc2ccc3ccccc3c2)SCC1=O` are > 50 µM, 0.033 µM, 0.4 µM and 0.245 µM.
The like results for `CCOC(=O)C1=C(Nc2ccc3c(c2)CCCC3)OCC1=O` were, in that order, > 50 µM, 0.018 µM, 0.076 µM and 0.057 µM.
For the compound `CCCCOC(=O)C1=C(Nc2ccc(C)c(C)c2)SCC1=O`, the IC50 in assay [1] is > 50 µM; in assay [2], 2.35 µM; in assay [3], 0.889 µM; in assay [4] it was 0.745 µM.
In the same order, the values of `CCOC(=O)C1=C(Nc2ccc(C(F)(F)F)cc2)OCC1=O` are > 50 µM, 0.142 µM, 0.867 µM and 0.607 µM.
Regarding `CCOC(=O)C1=C(Nc2ccc(C(C)(C)C)cc2)SCC1=O`, the IC50 in assay [1] is > 50 µM; in assay [2] it was 0.227 µM; in assay [3] it was 0.767 µM; in assay [4], 1.53 µM.
In the same order, the values of `CCCCNC(=O)C1=C(Nc2ccc3ccccc3c2)SCC1=O` are > 50 µM, > 50 µM, 4.03 µM and 5.83 µM.
The like results for `Cc1ccc(NC2=CC(=O)CS2)cc1C` were, in that order, > 50 µM, 11.4 µM, 2.5 µM and 1.91 µM.
The like results for `CCCOC(=O)C1=C(Nc2ccc3ccccc3c2)SCC1=O` were, in that order, > 50 µM, 0.951 µM, 1.66 µM and 0.89 µM.
As for `CCOC(=O)C1=C(Nc2ccc(C)c(C)c2)OCC1=O`, the IC50 was > 50 µM in assay [1], 0.698 µM in assay [2], 0.486 µM in assay [3] and 0.372 µM in assay [4].
The like results for `CCOC(=O)C1=C(Nc2ccc(Cl)cc2)SCC1=O` were, in that order, > 50 µM, 1.11 µM, > 20 µM and > 20 µM.
The like results for `CCOC(=O)C1=C(Nc2cnc3ccccc3c2)SCC1=O` were, in that order, > 50 µM, 0.351 µM, 0.29 µM and 0.253 µM.
The like results for `O=C1CSC(Nc2ccc3ccccc3c2)=C1C(=O)NC1CC1` were, in that order, > 50 µM, 13.2 µM, 7.94 µM and 10.2 µM.
Regarding `CCOC(=O)C1=C(Nc2ccc(C(F)(F)F)cc2)SCC1=O`, the IC50 in assay [1] was > 50 µM; in assay [2], 0.367 µM; in assay [3], 1.04 µM; in assay [4], 0.946 µM.
The like results for `CCCNC(=O)C1=C(Nc2ccc3ccccc3c2)SCC1=O` were, in that order, > 50 µM, > 50 µM, 3.55 µM and 3.48 µM.
In the same order, the values of `CCOC(=O)C1=C(Nc2ccc(C)c(F)c2)SCC1=O` are > 50 µM, 0.536 µM, 3.73 µM and 5.05 µM.
The like results for `CCOC(=O)C1=C(Nc2cccc(C(F)(F)F)c2)SCC1=O` were, in that order, > 50 µM, > 50 µM, 13.6 µM and 14.4 µM.
As for `CCOC(=O)C1=C(Nc2ccc(S(F)(F)(F)(F)F)cc2)SCC1=O`, the half-inhibitory concentration (IC50) was > 50 µM in assay [1], 0.559 µM in assay [2], 0.697 µM in assay [3] and 0.307 µM in assay [4].
In the same order, the values of `CCNC(=O)C1=C(Nc2ccc(C)c(C)c2)SCC1=O` are > 50 µM, 39.5 µM, 6.27 µM and 8.47 µM.
In the same order, the values of `CCCCNC(=O)C1=C(Nc2ccc(C)c(C)c2)SCC1=O` are 4.42 µM, 5.73 µM, 2.78 µM and 2.7 µM.
The like results for `CCNC(=O)C1=C(Nc2ccc3ccccc3c2)SCC1=O` were, in that order, > 50 µM, 12.1 µM, 8.49 µM and 11.1 µM.
Turning to `CCOC(=O)C1=C(Nc2ccccc2)SCC1=O`, the IC50 in assay [1] was > 50 µM; in assay [2] it was > 50 µM; in assay [3], 6.56 µM; in assay [4], 5.9 µM.
As for `CCOC(=O)C1=C(Nc2cc(Cl)cc(Cl)c2)SCC1=O`, the IC50 in assay [1] is > 50 µM; in assay [2], 1.19 µM; in assay [3], 6 µM; in assay [4], 4.03 µM.
The like results for `O=C1CSC(Nc2ccc3ccccc3c2)=C1C(=O)NCC1CC1` were, in that order, > 50 µM, > 50 µM, > 20 µM and 12.4 µM.
